In ChEMBL document CHEMBL3596102, “Anti-bacterial glycosyl triazoles - Identification of an N-acetylglucosamine derivative with bacteriostatic activity against Bacillus” (2014):
≈ marks a conversion by molar mass, not a printed value. Calls of active or inactive are those of the source. No cut-off for these calls is given here.

Assays:
Bacillus subtilis [1] = experiment: Antibacterial activity against Bacillus subtilis ATCC 11775 assessed as inhibition of bacterial growth after 4 hrs by resazurin microtiter assay; type: functional; conditions: ATCC 11775, 4 h
Bacillus subtilis [2] = experiment: Bacteriostatic activity against Bacillus subtilis ATCC 11775 assessed as colony count at MIC after 4 hrs by resazurin microtiter assay (reference value: 9.40 +/-2.88x10^7 CFU/ml); type: functional
Bacillus subtilis [3] = experiment: Inhibition of GlcNAcase in Bacillus subtilis ATCC 11775 assessed as inhibition of nitrophenol release using beta-p-nitrophenyl GlcNAc as substrate after 16 hrs by Spectromax 190 microtitre plate reader
Bacillus subtilis [4] = experiment: Inhibition of GlcNAcase in Bacillus subtilis ATCC 11775 assessed as inhibition of nitrophenol release using beta-p-nitrophenyl GlcNAc as substrate at 250 uM after 16 hrs by Spectromax 190 microtitre plate reader
Bacillus subtilis [5] = experiment: Induction of disrupted cell division in Bacillus subtilis ATCC 11775 assessed as phenotype with highly elongated cells and the appearance of chains of cells at 0.8xMIC after 2.5 hrs by phase contrast microscopy; type: functional, organism-based
Bacillus cereus [6] = experiment: Antibacterial activity against Bacillus cereus assessed as inhibition of bacterial growth after 4 hrs by resazurin microtiter assay; type: functional
Bacillus cereus [7] = experiment: Bacteriostatic activity against Bacillus cereus assessed as colony count at MIC after 4 hrs by resazurin microtiter assay (reference value: 2.67 +/-1.53x10^8 CFU/ml); type: functional

Structure (SMILES)	MIC (Bacillus subtilis [1]) [µM]	Activity (Bacillus subtilis [2]) [×10⁷ CFU/ml]	inhibition (Bacillus subtilis [3])	inhibition (Bacillus subtilis [4])	Activity (Bacillus subtilis [5])	MIC (Bacillus cereus [6]) [µM]	Activity (Bacillus cereus [7]) [×10⁸ CFU/ml]
CCCCNC(=O)C(C1CCCCC1)N(Cc1cn([C@@H]2O[C@H](CO)[C@@H](O)[C@H](O)[C@H]2NC(C)=O)nn1)C(=O)c1ccccc1I (some centres not stated)	63 (≈ 45.8 µg/mL)	8.5	Dose-dependent effect	Active	Active	–	–
COc1ccc(C(C(=O)NCc2ccccc2)N(Cc2ccccc2)C(=O)c2cn([C@@H]3O[C@H](CO)[C@@H](O)[C@H](O)[C@H]3NC(C)=O)nn2)cc1 (some centres not stated)	–	–	–	–	–	60 (≈ 39.5 µg/mL)	7
